Reference: US10781184B2, “Substituted benzazinones as antibacterial compounds” (GlaxoSmithKline Intellectual Property Development Limited, priority 2015, dated 2020)
Converted amounts (≈) assume the structure as drawn.

Tests used:
Test in all cases: Minimum Inhibitory Concentration Assay (broth microdilution, CLSI)
Format in all cases: cell-based
P. aeruginosa PA01 = details: Pseudomonas aeruginosa; strain PA01, broth microdilution; read-out: P. aeruginosa PA01 MIC
Method in brief: (§1)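 CLSI broth microdilution for aerobic bacteria; compounds serially diluted in the recommended broth over a final range of 0.125–128 mcg/mL, final DMSO below 1%. MIC read as the lowest concentration inhibiting visible growth.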

E. coli 7623 = details: Escherichia coli; strain 7623, broth microdilution; read-out: E. coli 7623 MIC
Method in brief: as §1

K. pneumoniae 1161486 = details: Klebsiella pneumoniae; strain 1161486, broth microdilution; read-out: K. pneumoniae 1161486 MIC
Method in brief: as §1

Structure (SMILES) | MIC (P. aeruginosa PA01) [µg/mL] | MIC (E. coli 7623) [µg/mL] | MIC (K. pneumoniae 1161486) [µg/mL]
CN(C)NCc1ccc(-c2ccc3c(=O)n(CC[C@](C)(C(=O)NO)S(C)(=O)=O)ccc3c2)cc1 [Example 79, (2R)-4-(6-{4-[(2,2-dimethylhydrazin-1-yl)methyl]phenyl}-1-oxo-1,2-dihydroisoquinolin-2-yl)-N-hydroxy-2-methanesulfonyl-2-methylbutanamide] | 8 (≈ 16.4 µM) | 0.125 (≈ 0.257 µM) | 0.5 (≈ 1.03 µM)
CN(CCOc1ccc(-c2ccc3c(=O)n(CC[C@](C)(C(=O)NO)S(C)(=O)=O)ccc3c2)cn1)C1CC1.O=C(O)C(F)(F)F [Example 82, (2R)-4-[6-(6-{2-[cyclopropyl(methyl)amino]ethoxy}pyridin-3-yl)-1-oxo-1,2-dihydroisoquinolin-2-yl]-N-hydroxy-2-methanesulfonyl-2-methylbutanamide] | 4 | 0.25 | 0.25
COc1ccc(-c2ccc3c(=O)n(CC[C@](C)(C(=O)NO)S(C)(=O)=O)cc(F)c3c2)cc1 [Example 83, (2R)-4-[4-fluoro-6-(4-methoxyphenyl)-1-oxo-1,2-dihydroisoquinolin-2-yl]-N-hydroxy-2-methanesulfonyl-2-methylbutanamide] | 8 (≈ 17.3 µM) | < 0.03 | 0.25 (≈ 0.541 µM)
C[C@@](CCn1cc(F)c2cc(-c3ccccc3)ccc2c1=O)(C(=O)NO)S(C)(=O)=O [Example 84, (2R)-4-(4-fluoro-1-oxo-6-phenyl-1,2-dihydroisoquinolin-2-yl)-N-hydroxy-2-methanesulfonyl-2-methylbutanamide] | 4 (≈ 9.25 µM) | 0.5 (≈ 1.16 µM) | 0.25 (≈ 0.578 µM)
CN(C)Cc1ccc(-c2ccc3c(=O)n(CC[C@](C)(C(=O)NO)S(C)(=O)=O)cc(F)c3c2)cc1 [Example 85, (2R)-4-(6-{4-[(dimethylamino)methyl]phenyl}-4-fluoro-1-oxo-1,2-dihydroisoquinolin-2-yl)-N-hydroxy-2-methanesulfonyl-2-methylbutanamide] | 4 (≈ 8.17 µM) | 0.5 (≈ 1.02 µM) | 1 (≈ 2.04 µM)
CCOc1ccc(-c2ccc3c(=O)n(CC[C@](C)(C(=O)NO)S(C)(=O)=O)cc(F)c3c2)cn1 [Example 86, (2R)-4-[6-(6-ethoxypyridin-3-yl)-4-fluoro-1-oxo-1,2-dihydroisoquinolin-2-yl]-N-hydroxy-2-methanesulfonyl-2-methylbutanamide] | 16 (≈ 33.5 µM) | < 0.03 | 0.25 (≈ 0.524 µM)
COc1ccc(-c2ccc3c(=O)n(CC[C@](C)(C(=O)NO)S(C)(=O)=O)cc(F)c3c2)cn1 [Example 87, (2R)-4-[4-fluoro-6-(6-methoxypyridin-3-yl)-1-oxo-1,2-dihdroisoquinolin-2-yl]-N-hydroxy-2-methanesulfonyl-2-methylbutanamide] | 8 (≈ 17.3 µM) | 0.06 (≈ 0.129 µM) | 0.25 (≈ 0.539 µM)
CN(C)c1ccc(-c2ccc3c(=O)n(CC[C@](C)(C(=O)NO)S(C)(=O)=O)cc(F)c3c2)cn1 [Example 90, (2R)-4-{6-[6-(dimethylamino)pyridin-3-yl]-4-fluoro-1-oxo-1,2-dihydroisoquinolin-2-yl}-N-hydroxy-2-methanesulfonyl-2-methylbutanamide] | 32 (≈ 67.2 µM) | 0.063 (≈ 0.132 µM) | 1 (≈ 2.1 µM)
C[C@@](CCN1CCc2cc(-c3ccc(CN4CCOCC4)cc3)ccc2C1=O)(C(=O)NO)S(C)(=O)=O [Example 92, (2R)—N-hydroxy-2-methanesulfonyl-2-methyl-4-(6-{4-[(morpholin-4-yl)methyl]phenyl}-1-oxo-1,2,3,4-tetrahydroisoquinolin-2-yl)butanamide] | 4 (≈ 7.76 µM) | 0.5 (≈ 0.97 µM) | 0.5 (≈ 0.97 µM)

Next, values leading:

MIC (P. aeruginosa PA01) [µg/mL] | MIC (E. coli 7623) [µg/mL] | MIC (K. pneumoniae 1161486) [µg/mL] | Structure (SMILES)
2 | 0.25 | 0.5 | CC(C)OCCNCc1ccc(-c2ccc3c(=O)n(CC[C@](C)(C(=O)NO)S(C)(=O)=O)ccc3c2)c(F)c1.Cl [Example 73, (2R)-4-{6-[2-fluoro-4-({[2-(propan-2-yloxy)ethyl]amino}methyl)phenyl]-1-oxo-1,2-dihydroisoquinolin-2-yl}-N-hydroxy-2-methanesulfonyl-2-methylbutanamide]
1 | 0.25 | 0.5 | CN(CCO)Cc1ccc(-c2ccc3c(=O)n(CC[C@](C)(C(=O)NO)S(C)(=O)=O)ccc3c2)c(F)c1.O=C(O)C(F)(F)F [Example 74, (2R)-4-[6-(2-fluoro-4-{[(2-hydroxyethyl)(methyl)amino]methyl}phenyl)-1-oxo-1,2-dihydroisoquinolin-2-yl]-N-hydroxy-2-methanesulfonyl-2-methylbutanamide]
0.5 (≈ 0.997 µM) | < 0.03 | 0.125 (≈ 0.249 µM) | C[C@@](CCn1ccc2cc(-c3ccc(CNC4CC4)cc3F)ccc2c1=O)(C(=O)NO)S(C)(=O)=O [Example 76, (2R)-4-(6-{4-[(cyclopropylamino)methyl]-2-fluorophenyl}-1-oxo-1,2-dihydroisoquinolin-2-yl)-N-hydroxy-2-methanesulfonyl-2-methylbutanamide]
2 (≈ 4 µM) | 0.125 (≈ 0.25 µM) | 0.25 (≈ 0.499 µM) | CN(C)N(C)Cc1ccc(-c2ccc3c(=O)n(CC[C@](C)(C(=O)NO)S(C)(=O)=O)ccc3c2)cc1 [Example 77, (2R)—N-hydroxy-2-methanesulfonyl-2-methyl-4-(1-oxo-6-{4-[(1,2,2-trimethylhydrazin-1-yl)methyl]phenyl}-1,2-dihydroisoquinolin-2-yl)butanamide]
4 (≈ 8.45 µM) | 0.063 (≈ 0.133 µM) | 0.125 (≈ 0.264 µM) | CONCc1ccc(-c2ccc3c(=O)n(CC[C@](C)(C(=O)NO)S(C)(=O)=O)ccc3c2)cc1 [Example 78, (2R)—N-hydroxy-2-methanesulfonyl-4-(6-{4-[(methoxyamino)methyl]phenyl}-1-oxo-1,2-dihydroisoquinolin-2-yl)-2-methylbutanamide]
1 (≈ 1.9 µM) | 0.063 (≈ 0.119 µM) | 0.25 (≈ 0.474 µM) | C[C@@](CCn1ccc2cc(-c3ccc(CCN4CCOCC4)cc3)ccc2c1=O)(C(=O)NO)S(C)(=O)=O [Example 80, (2R)—N-hydroxy-2-methanesulfonyl-2-methyl-4-(6-{4-[2-(morpholin-4-yl)ethyl]phenyl}-1-oxo-1,2-dihdroisoquinolin-2-yl)butanamide]
1 (≈ 1.95 µM) | 0.25 (≈ 0.489 µM) | 0.5 (≈ 0.977 µM) | C[C@@](CCn1ccc2cc(-c3ccc(CN4CCCC4=O)cc3)ccc2c1=O)(C(=O)NO)S(C)(=O)=O [Example 81, (2R)—N-hydroxy-2-methanesulfonyl-2-methyl-4-(1-oxo-6-{4-[(2-oxopyrrolidin-1-yl)methyl]phenyl}-1,2-dihydroisoquinolin-2-yl)butanamide]
2 (≈ 3.72 µM) | 0.125 (≈ 0.233 µM) | 0.25 (≈ 0.465 µM) | COCCNCc1ccc(-c2ccc3c(=O)n(CC[C@](C)(C(=O)NO)S(C)(=O)=O)cc(F)c3c2)c(F)c1 [Example 88, (2R)-4-[4-fluoro-6-(2-fluoro-4-{[(2-methoxyethyl)amino]methyl}phenyl)-1-oxo-1,2-dihydroisoquinolin-2-yl]-N-hydroxy-2-methanesulfonyl-2-methylbutanamide]
0.5 (≈ 1.09 µM) | 0.063 (≈ 0.137 µM) | 0.125 (≈ 0.273 µM) | C[C@@](CCn1ccc2cc(-c3ccc(CCO)cc3)ccc2c1=O)(C(=O)NO)S(C)(=O)=O [Example 93, (2R)—N-hydroxy-4-{6-[4-(2-hydroxyethyl)phenyl]-1-oxo-1,2-dihydroisoquinolin-2-yl}-2-methanesulfonyl-2-methylbutanamide]
2 (≈ 3.68 µM) | 0.125 (≈ 0.23 µM) | 0.25 (≈ 0.46 µM) | CN(C)CC(=O)OCCc1ccc(-c2ccc3c(=O)n(CC[C@](C)(C(=O)NO)S(C)(=O)=O)ccc3c2)cc1 [Example 94, 2-(4-{2-[(3R)-3-(hydroxycarbamoyl)-3-methanesulfonyl-3-methylpropyl]-1-oxo-1,2-dihydroisoquinolin-6-yl}phenyl)ethyl 2-(dimethylamino)acetate]
